The record followed here is paper PMC3169616, “Unique Residues Involved in Activation of the Multitasking Protease/Chaperone HtrA from Chlamydia trachomatis” (PLoS ONE, 2011).

The target of test [1] is T1, CtHtrA (Chlamydia trachomatis serovar D, UniProt P18584).
T1 construct: His-tag; made in house; host or cells: E. coli BL21 (DE3), plasmid pETHtrA
T1 sequence (P18584 17-497): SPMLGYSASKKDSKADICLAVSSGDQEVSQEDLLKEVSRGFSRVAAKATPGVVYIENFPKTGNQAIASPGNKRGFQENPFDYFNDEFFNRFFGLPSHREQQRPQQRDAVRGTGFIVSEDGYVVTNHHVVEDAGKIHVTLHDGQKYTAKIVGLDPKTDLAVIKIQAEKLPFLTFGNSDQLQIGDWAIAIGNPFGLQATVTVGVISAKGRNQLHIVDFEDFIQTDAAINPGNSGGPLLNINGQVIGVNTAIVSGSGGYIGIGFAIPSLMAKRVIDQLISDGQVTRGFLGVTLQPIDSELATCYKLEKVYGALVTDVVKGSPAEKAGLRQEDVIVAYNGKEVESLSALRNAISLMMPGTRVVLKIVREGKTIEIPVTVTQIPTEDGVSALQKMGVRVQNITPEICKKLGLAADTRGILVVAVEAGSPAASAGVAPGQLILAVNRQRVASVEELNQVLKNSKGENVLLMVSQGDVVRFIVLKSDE
Nature of the test: Protease assay and kinetic analysis with pNA-labelled peptide substrates. The class given is biochemical. The note with it: pNA peptide as substrate, absorbance 405 nm, 37°C; for Vmax: reading every 10 s for 30 min. On the procedure: A series of peptide substrates were then designed based on the cleavage sites previously identified in ß-casein [3], PICS results, previously published substrates for E. coli DegP [22], and the REPLi library screening results. These peptides were assayed against CtHtrA and kinetic analysis was conducted (Table 2). […] Generally, peptides with only 4 residues or less were not cleaved. […] The preference for K at P3 implies a salt bridge may be involved in substrate coordination in the CtHtrA active site in the substrate pocket or subsite S3. In a direct comparison between MFRLI-pNA and MFQLI-pNA, R was clearly the most preferred. […] The Km for each of these, however, was at least an order of magnitude higher than the Km for MFKLI-pNa. The results from individually synthesised peptides (Table 2) and the peptides sourced from the REPLi library (Table 1) were consistent in that non-polar sequences are most preferred. […] (Fig. S3).
The purified recombinant protein was examined by Coomassie stained polyacrylamide gels and activity was checked using ß-casein cleavage assays prior to use in peptide assays. Briefly, this involved incubating 2 µg of the protease with 10 µg of ß-casein in 50 mM Tris pH 7.0, 20 mM MgCl2 for 2 h prior to examining the assays by SDS PAGE (ß-casein and protease only controls were always conducted). Protease assays using peptides were conducted using custom synthesised peptides (Mimotopes). The peptides were purified to 95% purity (or greater) and were typically resuspended in 50% isopropanol, although some peptides required 100% DMSO. Protease assays using pNA labelled peptides were conducted using the xMARK Microplate spectrophotometer (Bio-Rad) at 405 nm, incubated at 37°C, with a reading taken every 10 s for 30 min. The maximum slope over a minimum of 8 readings was used for the data analysis. Other peptides were labelled with 7-methoxycoumarin-4-acetic acid (MCA, fluorophore) and 2,4-dinitrophenyl (DNP, quencher). The protease assays using these peptides were conducted in black plates at 37°C using the POLARstar Optima (BMG Labtech). The assays were excited at 340 nm and emission was detected at 405 nm with a gain of 1000, the assays were monitored every 20 s or at the minimum cycle time for up to 40 min. The Omega software was used to calculate the maximum rate from a minimum of 6 time points for each assay. The REPLi library of peptides (Mimotopes, Melbourne, Australia) was also assayed with CtHtrA in the POLARstar Optima using similar assay conditions to those described above. Substrate only and protease only assay controls were conducted for every experiment and protease assays were typically conducted in triplicate on at least two different days. The assay results shown are the maximal rate observed from three or more different assays and adjusted for protein concentration. The assay results shown for the fluorescent compounds have been normalised for the amount of fluorescent emission detected using a standard curve of known concentrations of the MCA fluorophore under the identical assay conditions. All of the peptides used in this work were synthesised commercially to 95% purity or greater (Mimotopes, Melbourne, Australia). All protease assays were conducted minimally in duplicate on three separate occasions.

Test [2] has as its target T1, CtHtrA. Nature of the test: Oligomerisation assay (glutaraldehyde crosslinking, 3-8% TrisAcetate gel, silver stain). Type of test: biochemical. The note with it: wild type CtHtrA 2 mg/ml, 100 mM sodium phosphate pH 7.0, 10 mins at 37°C, 0.5% glutaraldehyde fixation. Here is the method:
(§1) E. coli DegP proteolysis activation involves the transition from resting hexamers via trimers to 12- and 24-mers following the peptide activator binding to the PDZ1 binding cleft. CtHtrA oligomer formation induced by Act1 addition was examined after incubation for 10 mins at 37°C. The wild type and mutant proteins were incubated with either the ß-casein based activator peptide (Act1), or with whole insulin (intact), or in the absence of any activator as a control. CtHtrA incubated in the absence of any added activators formed 24-mers with some hexamers detected after 10 mins (Fig. 5). […] The R299W mutant was present as hexamer and 24-mer in the control with no activator. […] The L302N mutant was not detected in any higher oligomeric form under any conditions. L302N was detected as faint hexamer and trimer but mostly monomer under all tested conditions (not visible on these gels). […] I365D was detected as hexamers, trimers, 12-mers, and some 24-mers when incubated in the absence of activators.
(§2) The oligomerisation of HtrA into 12- and 24-mer complexes has been independently detected for E. coli HtrA (DegP). The oligomerisation of HtrA (DegP) was triggered by peptides from digested ß-casein [18]. Assays to detect whether CtHtrA and site directed mutant protein oligomerisation was triggered by substrates were conducted essentially as previously described (Merdanovic et al., 2010). Briefly, 2 mg/ml protein solutions in 100 mM sodium phosphate buffer pH 7.0 were pre-incubated to the required temperature. The ligands (activator peptide, or insulin) were added and at 10 min, and the proteins were fixed using 0.5% glutaraldehyde. Samples were fixed at room temperature for 2 min prior to addition of 1 M Tris pH 7.5 to remove any excess glutaraldehyde. Samples were incubated for another 10 min at room temperature prior to addition of SDS PAGE reducing loading buffer. The protein samples were examined on 3–8% TrisAcetate gradient polyacrylamide gels (Novex, Invitrogen) by silver staining. The proteins used in this study were not initially denatured by treatment with urea as, the refolding, formation of oligomers, and protease activity was never successfully detected with denatured CtHtrA. All assays were conducted in duplicate on three separate occasions with at least two gels of each experiment completed for each assay condition.

The target of test [3] is T1, CtHtrA. As to the kind of experiment: Activation of CtHtrA cleavage of Bcas1 substrate by added activator. Type of test: biochemical. The note with it: substrate Bcas1 (MCA-ENLHLPLPIIF-DNP), fluorimetric, 37°C. Here is the method: To determine if the addition of a second peptide to the protease assays could activate or increase CtHtrA proteolysis, two activator peptides were tested in the CtHtrA cleavage of the model ß-casein peptide substrate Bcas1. The first was based on the ß-casein C-terminal sequence (Act1: NH2-VLGPVRGPFPIIV-OH) and the second on insulin b chain C-terminal sequence (Act2: NH2-CGELGFFYTP-OH).
Finally, in order to determine if the 24-mer (highest amount with MOMP protein, or Act1), or 12-mer, or both, corresponds to enhanced protease activity, the incubations of CtHtrA and these potential in vivo activators were used for protease assays with the Bcas1 substrate (Fig. 6). […] The presence of the majority of CtHtrA as higher order oligomers correlated with an increased rate of proteolysis for CtHtrA, particularly when these oligomers were predominately 24-mers.
The purified recombinant protein was examined by Coomassie stained polyacrylamide gels and activity was checked using ß-casein cleavage assays prior to use in peptide assays. Briefly, this involved incubating 2 µg of the protease with 10 µg of ß-casein in 50 mM Tris pH 7.0, 20 mM MgCl2 for 2 h prior to examining the assays by SDS PAGE (ß-casein and protease only controls were always conducted). Protease assays using peptides were conducted using custom synthesised peptides (Mimotopes). […] Protease assays using pNA labelled peptides were conducted using the xMARK Microplate spectrophotometer (Bio-Rad) at 405 nm, incubated at 37°C, with a reading taken every 10 s for 30 min. The maximum slope over a minimum of 8 readings was used for the data analysis. […] The assays were excited at 340 nm and emission was detected at 405 nm with a gain of 1000, the assays were monitored every 20 s or at the minimum cycle time for up to 40 min. […] The assay results shown for the fluorescent compounds have been normalised for the amount of fluorescent emission detected using a standard curve of known concentrations of the MCA fluorophore under the identical assay conditions. […]

Test [4] has as its target T1, CtHtrA. As to the kind of experiment: MS and MS-MS analysis of peptide cleavage products. Type of test: biochemical. The note with it: peptide 150 µM digested with CtHtrA (71 µg); sites MCA-ENLH↓LPLPI↓IF-DNP. On the procedure:
Bcas1 and Act1 peptides (150 µM concentration) digested with CtHtrA (71 µg) were analysed by online LC/MS/MS using a QStar Pulsar I (Applied Biosystems) in […] mode. Data acquired were converted into mzXML format using proteowizard (v2) and searched using ([…], the global proteome machine, ftp://ftp.thegpm.org/fasta/cRAP), against CtHtrA and Act1 and Bcas1 peptide sequences with an included decoy database of the reverse sequence for each protein. The search also included potential mass modifications accounting for the additional […] moieties on the N and C peptide termini, respectively. Matches with an expected ratio of <1 were considered identified. All raw data and mass spectra can be made available on request.

The test system of another test is CtHtrA R373A/R299W. As to the kind of experiment: Oligomerisation assay, mutated protein. Type of test: biochemical, Chlamydia trachomatis. The note with it: R373A/R299W mutant, 10 mins incubation.
Excerpt: This activation was very similar to that observed for CtHtrA, and was the only condition during which any of the mutated proteins oligomerised in a similar profile to CtHtrA.
as §2, with “All assays were conducted in duplicate on three separate occasions with at least two gels of each experiment completed for each assay condition.” left out

The subject of another test is CtHtrA R299W. As to the kind of experiment: Oligomerisation assay, mutated protein. The class given is biochemical, Chlamydia trachomatis. The note with it: R299W mutant, 10 mins incubation. Here is the method:
as §1, §2

Another test concerns CtHtrA R373A. Nature of the test: Oligomerisation assay, mutated protein. The class given is biochemical, Chlamydia trachomatis. The note with it: R373A mutant, 10 mins incubation. Here is the method: as §1, §2

No end group written: not given here. *: point of attachment. pNA = O=[N+]([O-])c1ccc(N*)cc1

For the substance “DMPFKLT-pNA [Model E. coli substrate, T at P1]”, at CtHtrA [1], the Kcat/Km stood at 158.7 M⁻¹ s⁻¹; the Km came to 940 µM; the Vmax was 8.955 mM sec^−1, µM CtHtrA^−1.

With “DPMFKLI-pNA [Model E. coli substrate, I at P1]”, at CtHtrA [1], the Km came to 527 µM and the Vmax is given as 10.340 mM sec^−1, µM CtHtrA^−1.

As for “DPMFKLL-pNA [Model E. coli substrate, L at P1]”, at CtHtrA [1], the Km was 883 µM and the Vmax is reported as 3.179 mM sec^−1, µM CtHtrA^−1.

With “DPMFKLP-pNA [Model E. coli substrate, P at P1]”, on CtHtrA [1], the Km is 3870 µM and the Vmax is 2.917 mM sec^−1, µM CtHtrA^−1.

With “DPMFKLV-pNA [previously published E. coli DegP substrate [22], reference compound]”, at CtHtrA [1], the Kcat/Km came to 241.2 M⁻¹ s⁻¹; the Km was found to be 323 µM; the Vmax is given as 4.678 mM sec^−1, µM CtHtrA^−1.

Consider “DPMFKQT-pNA [Model E. coli substrate, change P1 and P2]”, for which, on CtHtrA [1], the Kcat/Km came out at 542.2 M⁻¹ s⁻¹; the Michaelis constant (Km) was 9.38 µM; the Vmax was 0.3165 mM sec^−1, µM CtHtrA^−1.

As to “H-AESNFKMLEIEAE-OH [CtL0043, C-terminal 13 residues of outer membrane ß-barrel CtL0043]”, the “CtHtrA oligomer formation induced by activator” value at CtHtrA [2] is recorded as “activated mainly trimer formation with some 12-mer present”.

As for H-HDVLSPSLDEINVP-OH [PyKinC], the “CtHtrA oligomer formation induced by activator” value on CtHtrA [2] is listed as “activated mainly trimer formation with some 12-mer present”.

Regarding “H-LAHMMNCGARMIF-OH [PmpC, C-terminal 13 residues of outer membrane ß-barrel PmpC]”, the “CtHtrA oligomer formation induced by activator” value at CtHtrA [2] is “activated the formation of 12-mer”. The “effect of activator on rate of CtHtrA proteolysis of Bcas1” value on CtHtrA [3] is given as “did not increase the rate of proteolysis of Bcas1”.

Consider “MCA-ENLHLPLPIIF-DNP [Bcas1, model ß-casein peptide substrate based on a ß-casein cleavage site]”, for which the “cleavage sites observed by LC-MS-MS” value at CtHtrA [4] was “Two cleavage sites”.

With MFKLI-pNA, on CtHtrA [1], the Kcat/Km was 1084.8 M⁻¹ s⁻¹; the Michaelis-Menten constant (Km) was determined as 62 µM; the Vmax is 4.046 mM sec^−1, µM CtHtrA^−1.

“MFQLI-pNA [pNA peptide substrate, P3 modification]”: at CtHtrA [1], the Kcat/Km worked out at 21.2 M⁻¹ s⁻¹; the Michaelis-Menten constant (Km) came to 141 µM; the Vmax was 0.1796 mM sec^−1, µM CtHtrA^−1.

Consider “MFRLI-pNA [pNA peptide substrate, P3 modification]”, for which, on CtHtrA [1], the Kcat/Km was determined as 106.22 M⁻¹ s⁻¹; the Km was 2910 µM; the Vmax is given as 18.53 mM sec^−1, µM CtHtrA^−1.

Take “PMFKLI-pNA [pNA peptide substrate, 1 residue less]”: at CtHtrA [1], the Kcat/Km was 526.7 M⁻¹ s⁻¹; the Km was 314 µM; the Vmax is reported as 9.931 mM sec^−1, µM CtHtrA^−1.

In the case of “insulin: previously demonstrated in vitro chaperone substrate of CtHtrA [reference compound]”, the “CtHtrA oligomer formation induced by activator” value with CtHtrA [2] is given as “activated to 24-mers with little hexamer visible”. The entries for the “oligomer formation induced by activator” value with CtHtrA R373A/R299W, in the test on CtHtrA R299W and in the test on CtHtrA R373A were “did not form a similar profile of oligomers as wild-type CtHtrA”, “mainly hexamer” and “mainly detected as hexamer”, respectively.
